{
  "source": "patent EP4711367A1",
  "about": "“PYRAZOLOPYRAZINE COMPOUND AND METHOD FOR PREPARING CRYSTAL FORM THEREOF” (CMS Research & Development Pte. Ltd., priority 2023, dated 2024)",
  "key": {"[1]": {"test": "Pharmacokinetic (PK) test in mice", "assay_type": "in vivo, male mice (balb/c)", "procedure": "The clarified solutions obtained by dissolving the test compound were administered to male mice (balb/c) via tail vein injection and oral gavage, respectively. After administration of the test compound, blood was collected from the mandibular vein at 0.083, 0.25, 0.5, 1, 2, 4, 8, and 24 hours for the intravenous injection group (1 mg/kg) and at 0.25, 0.5, 1, 2, 4, 6, 8, and 24 hours for the oral gavage group (3 mg/kg), followed by centrifugation to obtain plasma. Plasma concentrations were determined by the LC-MS/MS method, and relevant pharmacokinetic parameters were calculated using WinNonlin™ Version 6.3 pharmacokinetic software with non-compartmental model linear-log trapezoidal method. PK test results of the compound of formula (I) in mice"}, "JAK1(h)": {"target": "T1, JAK1(h) (Homo sapiens, UniProt P23458)", "T1 construct": "purchased Eurofins (UK)", "T1 sequence (P23458 whole entry)": "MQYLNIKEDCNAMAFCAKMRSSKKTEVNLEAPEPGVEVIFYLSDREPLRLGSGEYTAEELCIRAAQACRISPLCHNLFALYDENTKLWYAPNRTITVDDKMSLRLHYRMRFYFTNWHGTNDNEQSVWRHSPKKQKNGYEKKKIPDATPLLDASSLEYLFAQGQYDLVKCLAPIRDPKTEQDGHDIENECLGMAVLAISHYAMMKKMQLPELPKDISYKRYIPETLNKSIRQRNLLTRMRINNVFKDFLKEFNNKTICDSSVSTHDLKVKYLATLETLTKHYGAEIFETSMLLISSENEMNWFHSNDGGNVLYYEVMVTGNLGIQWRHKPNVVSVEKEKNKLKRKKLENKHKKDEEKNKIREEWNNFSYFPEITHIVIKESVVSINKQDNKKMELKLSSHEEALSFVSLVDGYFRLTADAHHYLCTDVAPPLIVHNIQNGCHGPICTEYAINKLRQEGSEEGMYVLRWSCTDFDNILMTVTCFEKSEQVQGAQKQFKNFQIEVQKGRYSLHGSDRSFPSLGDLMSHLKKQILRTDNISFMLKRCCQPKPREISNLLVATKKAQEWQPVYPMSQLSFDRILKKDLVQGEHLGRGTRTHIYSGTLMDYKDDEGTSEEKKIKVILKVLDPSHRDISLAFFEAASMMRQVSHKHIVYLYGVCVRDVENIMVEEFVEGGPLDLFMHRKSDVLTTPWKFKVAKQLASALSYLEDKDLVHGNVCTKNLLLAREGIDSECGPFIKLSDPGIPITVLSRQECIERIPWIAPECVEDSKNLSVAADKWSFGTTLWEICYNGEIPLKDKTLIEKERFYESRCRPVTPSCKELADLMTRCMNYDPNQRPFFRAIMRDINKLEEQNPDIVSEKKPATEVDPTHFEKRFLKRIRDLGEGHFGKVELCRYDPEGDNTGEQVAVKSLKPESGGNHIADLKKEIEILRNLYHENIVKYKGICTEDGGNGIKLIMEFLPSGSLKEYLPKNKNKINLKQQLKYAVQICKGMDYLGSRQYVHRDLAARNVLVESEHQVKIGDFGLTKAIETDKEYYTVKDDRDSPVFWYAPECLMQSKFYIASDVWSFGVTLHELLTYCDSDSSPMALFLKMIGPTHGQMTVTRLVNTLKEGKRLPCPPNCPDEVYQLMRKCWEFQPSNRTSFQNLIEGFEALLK", "test": "In vitro activity test of JAK1 kinase ([γ-33P]-ATP filter assay, Eurofins)", "assay_type": "biochemical", "procedure": "(§1) Recombinant human JAK1, JAK2, JAK3, and Tyk2 proteases, along with major instruments and reagents, were provided by Eurofins in the UK.\n(§2) JAK2, JAK3, and TYK2 were diluted with: 20 mM 3-(N-morpholino)propanesulfonic acid (MOPS), 1 mM EDTA, 0.01% Brij-35.5% glycerol, 0.1% β-mercaptoethanol, 1 mg/mL BSA; JAK1 was diluted with: 20 mM TRIS, 0.2 mM EDTA, 0.1% β-mercaptoethanol, 0.01% Brij-35.5% glycerol. The compound of formula (I) was prepared as a 100% DMSO solution and diluted to 50 times the final assay concentration. The test compound was subjected to a 3-fold serial dilution, with final concentrations ranging from 10 µM to 0.001 µM across 9 concentrations, and the DMSO content in the detection reaction was 2%. The working stock solution of this compound was added as the first component of the reaction to the assay wells, followed by the addition of the remaining components according to the protocol detailed below.\nJAK1(h) was incubated with 20 mM Tris/HCl pH 7.5, 0.2 mM EDTA, 500 µM MGEEPLYWSFPAKKK, 10 mM magnesium acetate, and [γ-^33P]-ATP (activity and concentration adjusted as needed). The reaction was initiated by adding the Mg/ATP mixture and incubated at room temperature for 40 minutes, then terminated by adding 0.5% phosphoric acid. […]\n(§3) The IC50 results were analyzed using XLFIT5 (205 formula) from IDBS, as detailed in Table 12. […]"}, "paw swelling": {"test_system": "paw swelling", "test": "Paw swelling and scores in mice after oral administration (only summarised, no method given)", "assay_type": "in vivo"}, "[2]": {"test_system": "IL-23-induced epidermal hyperplasia model of the mouse ear pinna", "test": "Pharmacodynamic test of psoriasis model in mice (IL-23 injected into the ear pinna)", "assay_type": "in vivo, C57BL/6 mouse", "details": "for Ear thickness (mm)/day: right ear", "procedure": "Objective: The purpose of this experiment is to evaluate the preventive and therapeutic effects of the test substance on IL-23-induced psoriasis-like skin lesions in mice, which were established by intradermal injection of IL-23 into the mouse ear pinna.\nMethods: After the acclimation period, 50 mice were divided into 5 groups of 10 each by Excel complete randomization, namely: vehicle (0.5% MC & 0.5% Tween 80) control group, model group, and compound of formula (I) (10, 20, 50 mg/kg) groups. Except for the vehicle control group, the remaining groups were intradermally injected with IL-23 (3 µg/10 µL/mouse/day, QD) in the right ear for 8 consecutive days (D1 to D8), while the control group animals were intradermally injected with an equal volume of normal saline solution (10 µL/mouse/day, QD) in the right ear for 8 consecutive days (D1 to D8). During the modeling period, the vehicle or test drug was orally administered twice daily (Bid) at 6-hour intervals for 8 consecutive days (D1 to D8). During the administration period, the body weight of the animals was monitored every two days. On D1, D3, D5, D7 (all before IL-23 injection), and D9, the thickness of the right ear of the mice was measured, and the appearance of the ear pinna was scored. At the end of the experiment (Day 10), the modeled ear was excised, and an ear piece was punched along the ear pinna edge using an 8 mm punch and weighed. The punched right ear piece was fixed with formalin and subjected to histopathological examination (H&E) staining."}, "JAK2(h)": {"target": "T2, JAK2(h) (Homo sapiens, UniProt O60674)", "T2 construct": "purchased Eurofins (UK)", "T2 sequence (O60674 whole entry)": "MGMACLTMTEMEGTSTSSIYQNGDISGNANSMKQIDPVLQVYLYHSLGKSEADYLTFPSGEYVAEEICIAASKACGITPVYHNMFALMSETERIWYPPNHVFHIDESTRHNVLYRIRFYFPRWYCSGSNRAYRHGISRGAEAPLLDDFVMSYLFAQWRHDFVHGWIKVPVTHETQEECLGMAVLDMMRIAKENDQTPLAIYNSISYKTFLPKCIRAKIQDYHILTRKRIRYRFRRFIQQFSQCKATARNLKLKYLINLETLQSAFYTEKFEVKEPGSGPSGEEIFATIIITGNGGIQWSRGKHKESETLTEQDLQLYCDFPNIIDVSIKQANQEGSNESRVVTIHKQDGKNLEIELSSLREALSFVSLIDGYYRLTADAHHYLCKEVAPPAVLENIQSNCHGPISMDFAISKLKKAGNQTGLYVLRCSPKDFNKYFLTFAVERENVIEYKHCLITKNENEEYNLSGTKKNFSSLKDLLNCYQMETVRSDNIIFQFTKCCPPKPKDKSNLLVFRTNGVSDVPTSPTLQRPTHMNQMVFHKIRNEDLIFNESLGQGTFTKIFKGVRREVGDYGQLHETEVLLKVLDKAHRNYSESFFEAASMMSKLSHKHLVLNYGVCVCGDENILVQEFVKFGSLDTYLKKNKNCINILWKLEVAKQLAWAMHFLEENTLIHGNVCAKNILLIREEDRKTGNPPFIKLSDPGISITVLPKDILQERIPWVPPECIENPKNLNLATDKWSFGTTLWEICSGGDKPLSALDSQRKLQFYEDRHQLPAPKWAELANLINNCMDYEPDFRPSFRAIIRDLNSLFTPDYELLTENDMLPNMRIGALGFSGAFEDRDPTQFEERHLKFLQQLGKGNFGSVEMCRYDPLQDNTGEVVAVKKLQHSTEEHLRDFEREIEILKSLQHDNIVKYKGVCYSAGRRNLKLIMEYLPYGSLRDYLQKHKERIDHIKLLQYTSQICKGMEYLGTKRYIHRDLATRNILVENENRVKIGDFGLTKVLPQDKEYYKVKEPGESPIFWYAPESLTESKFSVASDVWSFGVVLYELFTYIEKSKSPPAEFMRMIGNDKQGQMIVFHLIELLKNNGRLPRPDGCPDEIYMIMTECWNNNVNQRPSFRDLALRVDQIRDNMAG", "test": "In vitro activity test of JAK2 kinase ([γ-33P]-ATP filter assay, Eurofins)", "assay_type": "biochemical", "procedure": "as §1, §2\nJAK2(h) was incubated with 8 mM MOPS pH 7.0, 0.2 mM EDTA, 100 µM […], 10 mM magnesium acetate, and [γ-^33P]-ATP (prepared to the required activity and concentration). The reaction was initiated by adding the Mg/ATP mixture and incubated at room temperature for 40 minutes, then terminated by adding 0.5% phosphoric acid. […]\nas §3"}, "[3]": {"details": "10 mg/kg oral gavage twice daily for 8 days, day 1"}, "[4]": {"details": "10 mg/kg oral gavage twice daily for 8 days, day 3"}, "[5]": {"details": "10 mg/kg oral gavage twice daily for 8 days, day 5"}, "[6]": {"details": "10 mg/kg oral gavage twice daily for 8 days, day 7"}, "[7]": {"details": "10 mg/kg oral gavage twice daily for 8 days, day 9"}, "[8]": {"details": "20 mg/kg oral gavage twice daily for 8 days, day 1"}, "[9]": {"details": "20 mg/kg oral gavage twice daily for 8 days, day 3"}, "[10]": {"details": "20 mg/kg oral gavage twice daily for 8 days, day 5"}, "[11]": {"details": "20 mg/kg oral gavage twice daily for 8 days, day 7"}, "[12]": {"details": "20 mg/kg oral gavage twice daily for 8 days, day 9"}, "[13]": {"details": "50 mg/kg oral gavage twice daily for 8 days, day 1"}, "[14]": {"details": "50 mg/kg oral gavage twice daily for 8 days, day 3"}, "[15]": {"details": "50 mg/kg oral gavage twice daily for 8 days, day 5"}, "[16]": {"details": "50 mg/kg oral gavage twice daily for 8 days, day 7"}, "[17]": {"details": "50 mg/kg oral gavage twice daily for 8 days, day 9"}, "[18]": {"details": "10, 20, 50 mg/kg oral gavage twice daily for 8 consecutive days"}},
  "note": "pIC50: −log10 of the molar value.",
  "data": [
    {"smiles": "Cn1cc(-c2cn3nccc3c(-c3cnn([C@]4(CC#N)CC5(C[C@H](C#N)C5)C4)c3)n2)cn1", "note": "(stereo partly drawn) [Compound of formula (I)]", "values": [
      {"measurement": "exposure (in words)", "setting": "[1]", "result": "high exposure"},
      {"measurement": "oral bioavailability (in words)", "setting": "[1]", "result": "good oral bioavailability"},
      {"measurement": "pIC50", "setting": "JAK1(h)", "result": 8.00},
      {"measurement": "degree of paw swelling (in words)", "setting": "paw swelling", "result": "significantly improve"},
      {"measurement": "effect on animal body weight (in words)", "setting": "paw swelling", "result": "no significant effect"},
      {"measurement": "scores and relative scores (in words)", "setting": "paw swelling", "result": "ameliorate"},
      {"measurement": "Body weight (g)/day", "setting": "[2]; [3]", "result": "19.77 ± 0.59", "unit": "g"},
      {"measurement": "Ear comprehensive score/day", "setting": "[2]; [3]", "result": "0.00 ± 0.00"},
      {"measurement": "Body weight (g)/day", "setting": "[2]; [4]", "result": "19.69 ± 0.57", "unit": "g"},
      {"measurement": "Ear comprehensive score/day", "setting": "[2]; [4]", "result": "0.00 ± 0.00"},
      {"measurement": "Body weight (g)/day", "setting": "[2]; [5]", "result": "20.02 ± 0.77", "unit": "g"},
      {"measurement": "Ear comprehensive score/day", "setting": "[2]; [5]", "result": "0.60 ± 0.52"},
      {"measurement": "Body weight (g)/day", "setting": "[2]; [6]", "result": "19.69 ± 0.63", "unit": "g"},
      {"measurement": "Ear comprehensive score/day", "setting": "[2]; [6]", "result": "1.70 ± 1.06"},
      {"measurement": "Body weight (g)/day", "setting": "[2]; [7]", "result": "20.04 ± 0.72", "unit": "g"},
      {"measurement": "Ear comprehensive score/day", "setting": "[2]; [7]", "result": "2.60 ± 1.43"},
      {"measurement": "Ear thickness (mm)/day", "setting": "[2]; [7]", "result": "0.430 ± 0.048", "unit": "mm"},
      {"measurement": "Body weight (g)/day", "setting": "[2]; [8]", "result": "19.77 ± 0.54", "unit": "g"},
      {"measurement": "Ear comprehensive score/day", "setting": "[2]; [8]", "result": "0.00 ± 0.00"},
      {"measurement": "Body weight (g)/day", "setting": "[2]; [9]", "result": "19.85 ± 0.78", "unit": "g"},
      {"measurement": "Ear comprehensive score/day", "setting": "[2]; [9]", "result": "0.00 ± 0.00"},
      {"measurement": "Body weight (g)/day", "setting": "[2]; [10]", "result": "20.13 ± 0.78", "unit": "g"},
      {"measurement": "Ear comprehensive score/day", "setting": "[2]; [10]", "result": "0.60 ± 0.70"},
      {"measurement": "Body weight (g)/day", "setting": "[2]; [11]", "result": "19.80 ± 0.92", "unit": "g"},
      {"measurement": "Ear comprehensive score/day", "setting": "[2]; [11]", "result": "1.40 ± 0.52"},
      {"measurement": "Body weight (g)/day", "setting": "[2]; [12]", "result": "20.27 ± 0.90", "unit": "g"},
      {"measurement": "Ear comprehensive score/day", "setting": "[2]; [12]", "result": "1.50 ± 0.71"},
      {"measurement": "Ear thickness (mm)/day", "setting": "[2]; [8]", "result": "0.190 ± 0.009", "unit": "mm"},
      {"measurement": "Ear thickness (mm)/day", "setting": "[2]; [11]", "result": "0.350 ± 0.025", "unit": "mm"},
      {"measurement": "Body weight (g)/day", "setting": "[2]; [13]", "result": "19.78 ± 0.53", "unit": "g"},
      {"measurement": "Ear comprehensive score/day", "setting": "[2]; [13]", "result": "0.00 ± 0.00"},
      {"measurement": "Body weight (g)/day", "setting": "[2]; [14]", "result": "19.85 ± 0.68", "unit": "g"},
      {"measurement": "Ear comprehensive score/day", "setting": "[2]; [14]", "result": "0.00 ± 0.00"},
      {"measurement": "Body weight (g)/day", "setting": "[2]; [15]", "result": "20.41 ± 0.70", "unit": "g"},
      {"measurement": "Ear comprehensive score/day", "setting": "[2]; [15]", "result": "0.10 ± 0.32"},
      {"measurement": "Body weight (g)/day", "setting": "[2]; [16]", "result": "20.15 ± 0.56", "unit": "g"},
      {"measurement": "Ear comprehensive score/day", "setting": "[2]; [16]", "result": "1.40 ± 0.70"},
      {"measurement": "Body weight (g)/day", "setting": "[2]; [17]", "result": "20.28 ± 0.76", "unit": "g"},
      {"measurement": "Ear comprehensive score/day", "setting": "[2]; [17]", "result": "1.00 ± 0.47"},
      {"measurement": "effect on the body weight of the animals (in words)", "setting": "[2]; [18]", "result": "no significant effect"},
      {"measurement": "effect on the weight of the modeled ear (in words)", "setting": "[2]; [18]", "result": "significantly reduce"},
      {"measurement": "effect on the total score of the modeled ear (in words)", "setting": "[2]; 10, 20, 50 mg/kg oral gavage twice daily for 8 consecutive days, from D5 to D9", "result": "significantly reduce"},
      {"measurement": "effect on the thickness of the modeled ear (in words)", "setting": "[2]; dose of 50 mg/kg, as early as D3", "result": "significantly reduces"},
      {"measurement": "effect on the thickness of the modeled ear (in words)", "setting": "[2]; doses of 10 and 20 mg/kg, starting from day 5", "result": "significantly reduces"},
      {"measurement": "pIC50", "setting": "JAK2(h)", "result": 8.40}
    ]}
  ]
}
